{"source": "ChEMBL document CHEMBL1149613", "about": "“Characterized mechanism of alpha-mangostin-induced cell death: caspase-independent apoptosis with release of endonuclease-G from mitochondria and increased miR-143 expression in human colorectal cancer DLD-1 cells” (Bioorg Med Chem, 2007)", "type_in_all_cases": "functional, cell-based", "key": {"DLD-1 [1]": {"tested_on": "DLD-1", "assay": "Apoptotic activity in human DLD1 cells at 15 uM after 24 hrs by Trypan blue exclusion test"}, "DLD-1 [2]": {"tested_on": "DLD-1", "assay": "Induction of apoptosis in human DLD1 cells assessed as activation of caspase-3 at 20 uM by Western blot"}, "DLD-1 [3]": {"tested_on": "DLD-1", "assay": "Effect on ERK5 mRNA expression levels in human DLD1 cells by semi-qRT PCR"}, "DLD-1 [4]": {"tested_on": "DLD-1", "assay": "Induction of apoptosis in human DLD1 cells assessed as activation of bax protein at 20 uM by Western blot"}, "DLD-1 [5]": {"tested_on": "DLD-1", "assay": "Decrease in Erk5 expression levels in human DLD1 cells by Western blot"}, "DLD-1 [6]": {"tested_on": "DLD-1", "assay": "Induction of apoptosis in human DLD1 cells assessed as release of endonuclease-G at 20 uM after 6 to 24 hrs by Western blot"}, "DLD-1 [7]": {"tested_on": "DLD-1", "assay": "Cytotoxicity against human DLD1 cells at 2 uM after 24 hrs by Trypan blue exclusion test"}, "DLD-1 [8]": {"tested_on": "DLD-1", "assay": "Increase in p-p38 levels in human DLD1 cells after 1 to 3 hrs by Western blot"}, "DLD-1 [9]": {"tested_on": "DLD-1", "assay": "Induction of apoptosis in human DLD1 cells assessed as activation of bcl2 at 20 uM by Western blot"}, "DLD-1 [10]": {"tested_on": "DLD-1", "assay": "Induction of apoptosis in human DLD1 cells assessed as release of endonuclease-G after 6 hrs by Western blot"}, "DLD-1 [11]": {"tested_on": "DLD-1", "assay": "Induction of apoptosis in human DLD1 cells assessed as activation of pan-caspase at 20 uM by Western blot"}, "DLD-1 [12]": {"tested_on": "DLD-1", "assay": "Induction of apoptosis in human DLD1 cells assessed as release of apoptosis-inducing factor at 20 uM after 6 to 24 hrs by Western blot"}, "DLD-1 [13]": {"tested_on": "DLD-1", "assay": "Reduction in cMyc level in human DLD1 cells by Western blot"}, "DLD-1 [14]": {"tested_on": "DLD-1", "assay": "Cytotoxicity against human DLD1 cells after 24 hrs by Trypan blue exclusion test", "conditions": "DLD-1, 24 h"}, "DLD-1 [15]": {"tested_on": "DLD-1", "assay": "Cytotoxicity against human DLD1 cells assessed as decrease in cell number at 20 uM after 24 hrs by Trypan blue exclusion test"}, "DLD-1 [16]": {"tested_on": "DLD-1", "assay": "Growth inhibition of human DLD1 cells"}}, "note": "Calls of active or inactive are those of the source. No cut-off for these calls is given here.", "data": [{"smiles": "COc1c(O)cc2oc3cc(O)c(CC=C(C)C)c(O)c3c(=O)c2c1CC=C(C)C", "note": "[MANGOSTIN]", "values": [{"measurement": "Activity", "setting": "DLD-1 [1]", "result": "Active"}, {"measurement": "Activity", "setting": "DLD-1 [2]", "result": "inactive"}, {"measurement": "Activity", "setting": "DLD-1 [3]", "result": "inactive"}, {"measurement": "Activity", "setting": "DLD-1 [4]", "result": "inactive"}, {"measurement": "Activity", "setting": "DLD-1 [5]", "result": "Active"}, {"measurement": "Activity", "setting": "DLD-1 [6]", "result": "Active"}, {"measurement": "Activity", "setting": "DLD-1 [7]", "result": "Active"}, {"measurement": "Activity", "setting": "DLD-1 [8]", "result": "Active"}, {"measurement": "Activity", "setting": "DLD-1 [9]", "result": "inactive"}, {"measurement": "Activity", "setting": "DLD-1 [10]", "result": "Dose-dependent effect"}, {"measurement": "Activity", "setting": "DLD-1 [11]", "result": "inactive"}, {"measurement": "Activity", "setting": "DLD-1 [12]", "result": "inactive"}, {"measurement": "Activity", "setting": "DLD-1 [13]", "result": "Active"}, {"measurement": "IC50", "setting": "DLD-1 [14]", "result": 7.5, "unit": "µM"}, {"measurement": "Activity", "setting": "DLD-1 [15]", "result": "Active"}]}, {"smiles": "O=c1[nH]cc(F)c(=O)[nH]1", "note": "[FLUOROURACIL]", "values": [{"measurement": "IC50", "setting": "DLD-1 [16]", "result": 4.5, "unit": "µM"}]}]}
